Here are results for one molecule from article PMC6691587, “New CXCR1/CXCR2 inhibitors represent an effective treatment for kidney or head and neck cancers sensitive or refractory to reference treatments” (Theranostics, 2019).

pIC50: −log10 of the molar value. Like-named read-outs stand apart in the source and are kept apart here.

Assay [1] relates to 786, 786R, CAL27 and CAL27R cells. Description: Apoptosis analysis (annexin-V/PI flow cytometry). The class given is cell-based, human. The note with it: sensitive and resistant cells, 2.5 µM, 48 h. Here is the method: (§1) Apoptosis analysis: After stimulation, cells were washed with ice-cold PBS and were stained with the annexin-V-fluo staining kit (Roche, Meylan, France) according to the manufacturer's procedure. Fluorescence was measured using the FL2 (AV) and FL3 (propidium iodide, PI) channels of a fluorescence-activated cell sorter apparatus (Calibur cytometer).

For assay [2], the system named is primary kidney tumor cells (CC). The assay is described as follows: Cell viability, primary kidney tumor cells CC. The class given is cell-based. Here is the method:
(§2) Fifty microliters of sodium 3′-[1-phenylaminocarbonyl)-3,4-tetrazolium]-bis(4-methoxy-6-nitro) benzene sulfonic acid hydrate (XTT) reagent was added to each well. The assay is based on the cleavage of the yellow tetrazolium salt XTT to form an orange formazan dye by metabolically active cells. This bio-reduction occurs in viable cells only and is related to NAD(P)H production through glycolysis. Therefore, the amount of formazan dye measured at 490 nm directly correlated with the number of metabolically active cells reflecting cell proliferation and viability. Each assay was performed in quadruplicate.
For the experiments with C29, we confirmed all the results by evaluating the cell viability. Cell viability and cell death was assessed using the ADAM-MC apparatus (NanoEnTek, Guro-gu, Seoul, Korea) based on fluorescent propidium iodide staining according to the manufacturer's instructions.
To determine the selectivity of the activity of the substances tested, the selectivity index (SI) was calculated according to the equation previously described where SI = IC50 of a compound in a normal cell line/IC50 of the same compound in cancer cell line. The IC50 is the concentration required to kill 50% of the cell population.

A further assay relates to A498. Description: XTT cell viability assay, A498 RCC cells. The class given is cell-based, human. The note with it: for pIC50: Homo sapiens, A498. The method in brief: (§3)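 XTT added per well → cleaved to formazan by viable cells → A490 read. n=4 replicates.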
The test system of the next assay is TF and CC cells. The assay is described as follows: FACS analysis of apoptotic markers, primary tumor cells. In kind it is cell-based. The note with it: C29 at 1 µmol/L. As for the experimental part:
as §1

The test system of assay [3] is sunitinib-resistant 786-O cells (786R). The assay is described as follows: XTT cell viability assay, sunitinib-resistant 786-O cells. As to conditions: 1 to 10 µM 48 h, 2.5 µM 24 to 96 h. In kind it is cell-based, human. As for the experimental part: as §2
In the next assay the test system is 786-O. Description: XTT cell viability assay, 786-O RCC cells. The note with it: for pIC50: Homo sapiens, 786-0. In kind it is cell-based, human. In outline: as §3

Take `O=C(Nc1cccc(Cl)c1)Nc1nc2ccc([N+](=O)[O-])cc2s1` [C29]: in assay [1], the “cell death (annexin-V/PI)” value is “induced cell death”. The negative logarithm of the IC50 (pIC50) is 5.70 in assay [2] (CXCR1+/CXCR2+); 5.60 in the assay with A498 (CXCR1+/CXCR2+, read-out: IC50 A498); 5.60 in the assay on A498 (XTT assay, 48 h, SD 10%, mean of three experiments, read-out: IC50 498 (Kidney RCC)); 5.70 in the assay with 786-O (CXCR1+/CXCR2+, read-out: IC50 786-O); 5.70 in the assay with 786-O (XTT assay, 48 h, SD 10%, mean of three experiments, read-out: IC50 786 (Kidney RCC)). Besides, the “proliferation of primary kidney tumor cells CC” value in assay [2] (Figure S8A-B) was “significantly decreased”. For the same molecule, the “Selectivity index CC” value in assay [2] (SI = IC50 in normal cells (15S)/IC50 in CC) came out at 6.25. For the same molecule, the “Selectivity index A498” value in the assay with A498 (SI = IC50 in normal cells (15S)/IC50 in A498) came to 5. For the same molecule, the “apoptotic markers in TF and CC cells” value with TF and CC cells is “detected apoptotic markers”. For the same molecule, in assay [3], the “effect on cell viability of sunitinib-resistant 786-O cells” value is “conserved”. Further, the “Selectivity index 786-O” value with 786-O (SI = IC50 in normal cells (15S)/IC50 in 786-O) worked out at 6.25. Moreover, the “viability of sensitive 786-O RCC cells compared with sunitinib” value in the assay with 786-O (XTT, 1 to 10 µM 48 h, 2.5 µM 24 to 96 h) is listed as “as efficiently as sunitinib”.
